Numbers after ± are expanded uncertainties.
Test: wn = mass fraction of the nth substance listed
Details: 100 kPa, Liquid; for viscosity: Falling or rolling sphere viscometry; for mass density: Vibrating tube method

SMILES: CNCCO [2-(methylamino)ethanol] + O
- viscosity (293.15 K, w1 = 0.075): 1.39 ± 0.012 mPa·s
- viscosity (293.15 K, w1 = 0.15): 1.875 ± 0.017 mPa·s
- viscosity (293.15 K, w1 = 0.225): 2.702 ± 0.024 mPa·s
- viscosity (293.15 K, w1 = 0.3): 3.973 ± 0.036 mPa·s
- mass density (293.15 K, w1 = 0.075): 997.66 ± 5.8 kg/m3
- mass density (293.15 K, w1 = 0.15): 997.93 ± 5.8 kg/m3
- mass density (293.15 K, w1 = 0.225): 999 ± 5.8 kg/m3
- mass density (293.15 K, w1 = 0.3): 1001.69 ± 5.8 kg/m3
- viscosity (298.15 K, w1 = 0.075): 1.217 ± 0.011 mPa·s
- viscosity (298.15 K, w1 = 0.15): 1.639 ± 0.015 mPa·s
- viscosity (298.15 K, w1 = 0.225): 2.367 ± 0.021 mPa·s
- viscosity (298.15 K, w1 = 0.3): 3.335 ± 0.03 mPa·s
- mass density (298.15 K, w1 = 0.075): 996.35 ± 5.8 kg/m3
- mass density (298.15 K, w1 = 0.15): 996.35 ± 5.8 kg/m3
- mass density (298.15 K, w1 = 0.225): 997.03 ± 5.8 kg/m3
- mass density (298.15 K, w1 = 0.3): 999.21 ± 5.8 kg/m3
- viscosity (303.15 K, w1 = 0.075): 1.075 ± 0.01 mPa·s
- viscosity (303.15 K, w1 = 0.15): 1.426 ± 0.013 mPa·s
- viscosity (303.15 K, w1 = 0.225): 2.02 ± 0.018 mPa·s
- viscosity (303.15 K, w1 = 0.3): 2.886 ± 0.026 mPa·s
- mass density (303.15 K, w1 = 0.075): 994.81 ± 5.8 kg/m3
- mass density (303.15 K, w1 = 0.15): 994.57 ± 5.8 kg/m3
- mass density (303.15 K, w1 = 0.225): 994.9 ± 5.8 kg/m3
- mass density (303.15 K, w1 = 0.3): 996.58 ± 5.8 kg/m3
- viscosity (308.15 K, w1 = 0.075): 0.958 ± 0.009 mPa·s
- viscosity (308.15 K, w1 = 0.15): 1.263 ± 0.011 mPa·s
- viscosity (308.15 K, w1 = 0.225): 1.744 ± 0.016 mPa·s
- viscosity (308.15 K, w1 = 0.3): 2.461 ± 0.022 mPa·s
- mass density (308.15 K, w1 = 0.075): 993.06 ± 5.8 kg/m3
- mass density (308.15 K, w1 = 0.15): 992.6 ± 5.8 kg/m3
- mass density (308.15 K, w1 = 0.225): 992.58 ± 5.8 kg/m3
- mass density (308.15 K, w1 = 0.3): 993.8 ± 5.8 kg/m3
- viscosity (313.15 K, w1 = 0.075): 0.859 ± 0.008 mPa·s
- viscosity (313.15 K, w1 = 0.15): 1.151 ± 0.01 mPa·s
- viscosity (313.15 K, w1 = 0.225): 1.521 ± 0.014 mPa·s
- viscosity (313.15 K, w1 = 0.3): 2.157 ± 0.019 mPa·s
- mass density (313.15 K, w1 = 0.075): 991.11 ± 5.8 kg/m3
- mass density (313.15 K, w1 = 0.15): 990.45 ± 5.8 kg/m3
- mass density (313.15 K, w1 = 0.225): 990.11 ± 5.8 kg/m3
- mass density (313.15 K, w1 = 0.3): 990.81 ± 5.8 kg/m3
- viscosity (318.15 K, w1 = 0.075): 0.777 ± 0.007 mPa·s
- viscosity (318.15 K, w1 = 0.15): 1.022 ± 0.009 mPa·s
- viscosity (318.15 K, w1 = 0.225): 1.409 ± 0.013 mPa·s
- viscosity (318.15 K, w1 = 0.3): 1.902 ± 0.017 mPa·s
- mass density (318.15 K, w1 = 0.075): 988.99 ± 5.8 kg/m3
- mass density (318.15 K, w1 = 0.15): 988.13 ± 5.8 kg/m3
- mass density (318.15 K, w1 = 0.225): 987.49 ± 5.8 kg/m3
- mass density (318.15 K, w1 = 0.3): 987.7 ± 5.8 kg/m3
- viscosity (323.15 K, w1 = 0.075): 0.707 ± 0.006 mPa·s
- viscosity (323.15 K, w1 = 0.15): 0.993 ± 0.009 mPa·s
- viscosity (323.15 K, w1 = 0.225): 1.299 ± 0.012 mPa·s
- viscosity (323.15 K, w1 = 0.3): 1.727 ± 0.016 mPa·s
- mass density (323.15 K, w1 = 0.075): 986.7 ± 5.8 kg/m3
- mass density (323.15 K, w1 = 0.15): 985.66 ± 5.8 kg/m3
- mass density (323.15 K, w1 = 0.225): 984.71 ± 5.8 kg/m3
- mass density (323.15 K, w1 = 0.3): 984.5 ± 5.8 kg/m3

From the NIST ThermoML archive (doi:10.1021/acs.jced.6b00504)
